This assay addresses human TYK2 (JH2domain-pseudokinase) (Homo sapiens (Human), UniProt P29597). As to the kind of experiment: TYK2 JH2 Domain Binding Assay (KINOMEscan). As to conditions: Table 4, JH2 binding assay; read-out: JH2 Kd.

Sequence of human TYK2 (JH2domain-pseudokinase) (P29597 556-888): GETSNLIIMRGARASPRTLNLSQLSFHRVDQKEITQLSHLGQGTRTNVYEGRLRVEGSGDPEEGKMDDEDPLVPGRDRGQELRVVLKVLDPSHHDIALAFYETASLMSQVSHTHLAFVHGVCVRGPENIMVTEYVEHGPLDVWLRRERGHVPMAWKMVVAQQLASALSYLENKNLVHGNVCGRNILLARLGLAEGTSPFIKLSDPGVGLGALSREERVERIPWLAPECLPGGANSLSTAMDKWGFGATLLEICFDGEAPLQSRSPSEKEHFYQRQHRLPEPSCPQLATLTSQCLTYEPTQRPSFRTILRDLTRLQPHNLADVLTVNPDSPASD

Consider `COc1c(Nc2cc(Nc3cc(C#N)ccn3)nc3[nH]n(C)c(=O)c23)cccc1-c1nnn(C)n1` [Compound I-32, 2-((4-((2-methoxy-3-(2-methyl-2H-tetrazol-5-yl)phenyl)amino)-2-methyl-3-oxo-2,3-dihydro-1H-pyrazolo[3,4-b]pyridin-6-yl)amino)isonicotinonitrile], for which the Kd was above 10 nM.

`COc1c(C#N)cccc1Nc1cc(NC(=O)C2CC2)nc2[nH]n(C)c(=O)c12` [Compound I-33]: the Kd was above 10 nM.

As for `COc1c(C#N)cccc1Nc1cc(Nc2ccc(C)cn2)nc2[nH]n(C)c(=O)c12` [Compound I-34], the dissociation constant Kd is above 10 nM.

On to `COCc1ccnc(Nc2cc(Nc3cccc(C#N)c3OC)c3c(=O)n(C)[nH]c3n2)c1` [Compound I-35], for which the Kd is above 10 nM.

Consider `COc1c(C#N)cccc1Nc1cc(Nc2ccc(N3CCOCC3)cn2)nc2[nH]n(C)c(=O)c12` [Compound I-36], for which the Kd is above 10 nM.

Consider `COc1c(C#N)cccc1Nc1cc(Nc2cc(C)c(F)cn2)nc2[nH]n(C)c(=O)c12` [Compound I-37], for which the Kd is above 10 nM.

Turning to `COc1c(C#N)cccc1Nc1cc(Nc2ccc(C)nn2)nc2[nH]n(C)c(=O)c12` [Compound I-38], the Kd was above 10 nM.

As for `COc1c(C#N)cccc1Nc1cc(Nc2cc(C)nc(C)n2)nc2[nH]n(C)c(=O)c12` [Compound I-39], the dissociation constant Kd was above 10 nM.

On to `COc1c(C#N)cccc1Nc1cc(Nc2ccc(N3CCCCC3)cn2)nc2[nH]n(C)c(=O)c12` [Compound I-40], for which the Kd was above 10 nM.

Turning to `COc1c(C#N)cccc1Nc1cc(Nc2ccc(C#N)cn2)nc2[nH]n(C)c(=O)c12` [Compound I-41], the Kd was above 10 nM.

In the case of `COc1c(Nc2cc(Nc3cc(C)ccn3)nc3[nH]n(C)c(=O)c23)cccc1-c1nccs1` [Compound I-43], the dissociation constant (Kd) was above 10 nM.

For the molecule `COc1cc(CO)ccc1Nc1cc(NC(=O)C2CC2)nc2[nH]n(C)c(=O)c12` [Compound I-44], the dissociation constant Kd lay within 1 to 10 nM.

As to `COCc1ccc(Nc2cc(NC(=O)C3CC3)nc3[nH]n(C)c(=O)c23)c(OC)c1` [Compound I-45, N-(4-((2-methoxy-4-(methoxymethyl)phenyl)amino)-2-methyl-3-oxo-2,3-dihydro-1H-pyrazolo[3,4-b]pyridin-6-yl)cyclopropanecarboxamide], the Kd was in the range of 1 to 10 nM.

Take `COc1c(Nc2cc(NC(=O)C3CC3)nc3[nH]n(C)c(=O)c23)cccc1-c1nc(C)nn1C` [Compound I-46, N-(4-((3-(1,3-dimethyl-1H-1,2,4-triazol-5-yl)-2-methoxyphenyl)amino)-2-methyl-3-oxo-2,3-dihydro-1H-pyrazolo[3,4-b]pyridin-6-yl)cyclopropanecarboxamide]: the Kd was 0.5 to 1 nM.

As to `COc1c(Nc2cc(Nc3cc(C)ccn3)nc3[nH]n(C)c(=O)c23)cccc1-c1ncc(C)s1` [Compound I-47, 4-((2-methoxy-3-(5-methylthiazol-2-yl)phenyl)amino)-2-methyl-6-((4-methylpyridin-2-yl)amino)-1,2-dihydro-3H-pyrazolo[3,4-b]pyridin-3-one], the Kd is above 10 nM.

Regarding `COc1c(F)cccc1Nc1cc(NC(=O)C2CC2)nc2[nH]n(C)c(=O)c12` [Compound I-48, N-(4-((3-fluoro-2-methoxyphenyl)amino)-2-methyl-3-oxo-2,3-dihydro-1H-pyrazolo[3,4-b]pyridin-6-yl)cyclopropanecarboxamide], the Kd was 0.5 to 1 nM.

With `COc1c(Cl)cccc1Nc1cc(NC(=O)C2CC2)nc2[nH]n(C)c(=O)c12` [Compound I-49, N-(4-((3-chloro-2-methoxyphenyl)amino)-2-methyl-3-oxo-2,3-dihydro-1H-pyrazolo[3,4-b]pyridin-6-yl)cyclopropanecarboxamide], the Kd lay within 0.5 to 1 nM.

Take `COc1cc(C2CC2)ccc1Nc1cc(NC(=O)C2CC2)nc2[nH]n(C)c(=O)c12` [Compound I-50, N-(4-((4-cyclopropyl-2-methoxyphenyl)amino)-2-methyl-3-oxo-2,3-dihydro-1H-pyrazolo[3,4-b]pyridin-6-yl)cyclopropanecarboxamide]: the Kd lay within 1 to 10 nM.

In the case of `COc1cc(C2CCC2)ccc1Nc1cc(NC(=O)C2CC2)nc2[nH]n(C)c(=O)c12` [Compound I-51], the equilibrium dissociation constant (Kd) was above 10 nM.

On to `COc1c(Nc2cc(NC(=O)C3CC3)nc3[nH]n(C)c(=O)c23)cccc1-c1nnnn1C` [Compound I-52], for which the equilibrium dissociation constant (Kd) lay within 1 to 10 nM.

Regarding `COc1c(Nc2cc(NC(=O)C3CC3)nc3[nH]n(C)c(=O)c23)cccc1-c1nc(C)n(C)n1` [Compound I-53], the Kd lay in the range of 0.1 to 0.5 nM.

For `COc1c(Nc2cc(NC(=O)C3CC3)nc3[nH]n(C)c(=O)c23)cccc1-c1ncnn1C` [Compound I-54, N-(4-((2-methoxy-3-(1-methyl-1H-1,2,4-triazol-5-yl)phenyl)amino)-2-methyl-3-oxo-2,3-dihydro-1H-pyrazolo[3,4-b]pyridin-6-yl)cyclopropanecarboxamide], the Kd lay in the range of 0.5 to 1 nM.

As for `COc1c(Nc2cc(NC(=O)C3CC3)nc3[nH]n(C)c(=O)c23)cccc1-c1cnn(C)c1` [Compound I-55, N-(4-((2-methoxy-3-(1-methyl-1H-pyrazol-4-yl)phenyl)amino)-2-methyl-3-oxo-2,3-dihydro-1H-pyrazolo[3,4-b]pyridin-6-yl)cyclopropanecarboxamide], the Kd lay within 0.5 to 1 nM.

Take `COc1c(Nc2cc(NC(=O)C3CC3)nc3[nH]n(C)c(=O)c23)cccc1-n1cccn1` [Compound I-56, N-(4-((2-methoxy-3-(1H-pyrazol-1-yl)phenyl)amino)-2-methyl-3-oxo-2,3-dihydro-1H-pyrazolo[3,4-b]pyridin-6-yl)cyclopropanecarboxamide]: the equilibrium dissociation constant (Kd) lay within 0.5 to 1 nM.

In the case of `COc1c(Nc2cc(NC(=O)C3CC3)nc3[nH]n(C)c(=O)c23)cccc1-c1ccn(C)n1` [Compound I-57], the dissociation constant Kd was below 0.1 nM.

As for `COc1c(Nc2cc(Nc3ccc(N4CCCC4)cn3)nc3[nH]n(C)c(=O)c23)cccc1-c1nnn(C)n1` [Compound I-58, 4-((2-methoxy-3-(2-methyl-2H-tetrazol-5-yl)phenyl)amino)-2-methyl-6-((5-(pyrrolidin-1-yl)pyridin-2-yl)amino)-1,2-dihydro-3H-pyrazolo[3,4-b]pyridin-3-one], the Kd is above 10 nM.

As to `COc1c(Nc2cc(Nc3ccc(C4CC4)cn3)nc3[nH]n(C)c(=O)c23)cccc1-c1nnn(C)n1` [Compound I-59, 6-((5-cyclopropylpyridin-2-yl)amino)-4-((2-methoxy-3-(2-methyl-2H-tetrazol-5-yl)phenyl)amino)-2-methyl-1,2-dihydro-3H-pyrazolo[3,4-b]pyridin-3-one], the equilibrium dissociation constant (Kd) fell in the range of 0.1 to 0.5 nM.

On to `COc1c(Nc2cc(Nc3cccc(C(F)(F)F)n3)nc3[nH]n(C)c(=O)c23)cccc1-c1nnn(C)n1` [Compound I-60, 4-((2-methoxy-3-(2-methyl-2H-tetrazol-5-yl)phenyl)amino)-2-methyl-6-((6-(trifluoromethyl)pyridin-2-yl)amino)-1,2-dihydro-3H-pyrazolo[3,4-b]pyridin-3-one], for which the Kd lay within 0.1 to 0.5 nM.

Regarding `COc1ccccc1Nc1cc(NC(=O)C2CC2)nc2[nH]n(C)c(=O)c12` [Compound I-61, N-(4-((2-methoxyphenyl)amino)-2-methyl-3-oxo-2,3-dihydro-1H-pyrazolo[3,4-b]pyridin-6-yl)cyclopropanecarboxamide], the equilibrium dissociation constant (Kd) lay within 1 to 10 nM.

As for `COc1c(Nc2cc(NC(=O)C3CC3)nc3[nH]n(C)c(=O)c23)cccc1-c1n[nH]c(C)n1` [Compound I-62], the dissociation constant Kd was below 0.1 nM.

Consider `COc1c(Nc2cc(Nc3cccc(N4CC(OC)C4)n3)nc3[nH]n(C)c(=O)c23)cccc1-c1nnn(C)n1` [Compound I-63, 4-((2-methoxy-3-(2-methyl-2H-tetrazol-5-yl)phenyl)amino)-6-((6-(3-methoxyazetidin-1-yl)pyridin-2-yl)amino)-2-methyl-1,2-dihydro-3H-pyrazolo[3,4-b]pyridin-3-one], for which the Kd was 0.1 to 0.5 nM.

Turning to `COc1c(Nc2cc(Nc3cncc(C#N)n3)nc3[nH]n(C)c(=O)c23)cccc1-c1nnn(C)n1` [Compound I-64, 6-((4-((2-methoxy-3-(2-methyl-2H-tetrazol-5-yl)phenyl)amino)-2-methyl-3-oxo-2,3-dihydro-1H-pyrazolo[3,4-b]pyridin-6-yl)amino)pyrazine-2-carbonitrile], the Kd is below 0.1 nM.

Consider `COc1c(Nc2cc(Nc3cccc(C4CC4)n3)nc3[nH]n(C)c(=O)c23)cccc1-c1nnn(C)n1` [Compound I-65, 6-((6-cyclopropylpyridin-2-yl)amino)-4-((2-methoxy-3-(2-methyl-2H-tetrazol-5-yl)phenyl)amino)-2-methyl-1,2-dihydro-3H-pyrazolo[3,4-b]pyridin-3-one], for which the Kd was in the range of 0.1 to 0.5 nM.

Turning to `CCNC(=O)c1cccc(Nc2cc(Nc3cccc(-c4nnn(C)n4)c3OC)c3c(=O)n(C)[nH]c3n2)n1` [Compound I-66, N-ethyl-6-((4-((2-methoxy-3-(2-methyl-2H-tetrazol-5-yl)phenyl)amino)-2-methyl-3-oxo-2,3-dihydro-1H-pyrazolo[3,4-b]pyridin-6-yl)amino)picolinamide], the Kd fell in the range of 0.5 to 1 nM.

For `COCc1ccc(Nc2cc(Nc3cccc(C(F)(F)F)n3)nc3[nH]n(C)c(=O)c23)c(OC)c1` [Compound I-67, 4-((2-methoxy-4-(methoxymethyl)phenyl)amino)-2-methyl-6-((6-(trifluoromethyl)pyridin-2-yl)amino)-1,2-dihydro-3H-pyrazolo[3,4-b]pyridin-3-one], the dissociation constant (Kd) fell in the range of 1 to 10 nM.

Turning to `COCc1ccc(Nc2cc(Nc3cccc(C#N)n3)nc3[nH]n(C)c(=O)c23)c(OC)c1` [Compound I-68, 6-((4-((2-methoxy-4-(methoxymethyl)phenyl)amino)-2-methyl-3-oxo-2,3-dihydro-1H-pyrazolo[3,4-b]pyridin-6-yl)amino)picolinonitrile], the Kd was in the range of 0.1 to 0.5 nM.

In the case of `COc1cc(C(=O)N2CCCC2)ccc1Nc1cc(NC(=O)C2CC2)nc2[nH]n(C)c(=O)c12` [Compound I-70, N-(4-((2-methoxy-4-(pyrrolidine-1-carbonyl)phenyl)amino)-2-methyl-3-oxo-2,3-dihydro-1H-pyrazolo[3,4-b]pyridin-6-yl)cyclopropanecarboxamide], the dissociation constant (Kd) fell in the range of 0.1 to 0.5 nM.

By Kd is commonly meant the constant that tells how readily two partners part at equilibrium.

For the origin of these results see patent US10323036B2 (Nimbus Lakshmi, Inc., priority 2016, dated 2019).
